According to PubChem BioAssay (NCI):
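Cultured in 96-well plates, cells were exposed to test compound for 48 hours across five concentrations. GI50 marks 50% less growth. The concentration for full growth arrest is given as TGI.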

What was measured:
Assay in all cases: NCI tumour cell line growth inhibition, 48 h
786-0 renal = test system: 786-0 renal
A498 renal = test system: A498 renal
A549 NSCLC = test system: A549 NSCLC
ACHN renal = test system: ACHN renal
BT-549 breast = test system: BT-549 breast
CAKI-1 renal = test system: CAKI-1 renal
CCRF-CEM leukemia = test system: CCRF-CEM leukemia
COLO 205 colon = test system: COLO 205 colon
DU-145 prostate = test system: DU-145 prostate
EKVX NSCLC = test system: EKVX NSCLC
HCC-2998 colon = test system: HCC-2998 colon
HCT-116 colon = test system: HCT-116 colon
HCT-15 colon = test system: HCT-15 colon
HL-60(TB) leukemia = test system: HL-60(TB) leukemia
HOP-62 NSCLC = test system: HOP-62 NSCLC
HOP-92 NSCLC = test system: HOP-92 NSCLC
HS 578T breast = test system: HS 578T breast
IGROV1 ovarian = test system: IGROV1 ovarian
K-562 leukemia = test system: K-562 leukemia
KM12 colon = test system: KM12 colon
LOX IMVI melanoma = test system: LOX IMVI melanoma
M14 melanoma = test system: M14 melanoma
MALME-3M melanoma = test system: MALME-3M melanoma
MCF7 breast = test system: MCF7 breast
MDA-MB-231 breast = test system: MDA-MB-231 breast
MDA-MB-435 = test system: MDA-MB-435
MDA-MB-468 breast = test system: MDA-MB-468 breast
MOLT-4 leukemia = test system: MOLT-4 leukemia
NCI-H226 lung = test system: NCI-H226 lung
NCI-H23 lung = test system: NCI-H23 lung
NCI-H460 lung = test system: NCI-H460 lung
NCI-H522 lung = test system: NCI-H522 lung
OVCAR-3 ovarian = test system: OVCAR-3 ovarian
OVCAR-4 ovarian = test system: OVCAR-4 ovarian
OVCAR-5 ovarian = test system: OVCAR-5 ovarian
OVCAR-8 ovarian = test system: OVCAR-8 ovarian
PC-3 prostate = test system: PC-3 prostate
RXF 393 renal = test system: RXF 393 renal
SF-268 CNS = test system: SF-268 CNS
SF-295 CNS = test system: SF-295 CNS
SF-539 CNS = test system: SF-539 CNS
SK-MEL-2 melanoma = test system: SK-MEL-2 melanoma
SK-MEL-28 melanoma = test system: SK-MEL-28 melanoma
SK-MEL-5 melanoma = test system: SK-MEL-5 melanoma
SK-OV-3 ovarian = test system: SK-OV-3 ovarian
SN12C renal = test system: SN12C renal
SNB-19 CNS = test system: SNB-19 CNS
SNB-75 CNS = test system: SNB-75 CNS
SR leukemia = test system: SR leukemia
SW-620 colon = test system: SW-620 colon
TK-10 renal = test system: TK-10 renal
U251 CNS = test system: U251 CNS
UACC-257 melanoma = test system: UACC-257 melanoma
UACC-62 melanoma = test system: UACC-62 melanoma
UO-31 renal = test system: UO-31 renal

Compound `CC(C)(C)Nc1nc2cc(Cl)c(Cl)cc2nc1S(C)(=O)=O` has a GI50 (786-0 renal) of 1.84 µM, a TGI (786-0 renal) of 3.47 µM and a GI50 (A498 renal) of 19.2 µM. It also gave a TGI (A498 renal) of 33.5 µM, a GI50 (A549 NSCLC) of 13.5 µM and a TGI (A549 NSCLC) of 27.6 µM. The GI50 (ACHN renal) was 1.75 µM, the TGI (ACHN renal) was 3.35 µM and the GI50 (BT-549 breast) was 1.74 µM. The TGI (BT-549 breast) was 3.41 µM, the GI50 (CAKI-1 renal) was 1.58 µM and the TGI (CAKI-1 renal) was 3.01 µM. The GI50 (CCRF-CEM leukemia) was 0.307 µM, the TGI (CCRF-CEM leukemia) was 3.77 µM and the GI50 (COLO 205 colon) was 1.7 µM. For the same compound, the TGI (COLO 205 colon) was 3.28 µM, the GI50 (DU-145 prostate) was 3.46 µM and the TGI (DU-145 prostate) was 12.1 µM. For the same compound, the GI50 (EKVX NSCLC) was 13.3 µM, the TGI (EKVX NSCLC) was 27 µM and the GI50 (HCC-2998 colon) was 8.7 µM. It also gave a TGI (HCC-2998 colon) of 20.9 µM, a GI50 (HCT-116 colon) of 1.67 µM and a TGI (HCT-116 colon) of 3.44 µM. The GI50 (HCT-15 colon) was 1.53 µM, the TGI (HCT-15 colon) was 3.03 µM and the GI50 (HL-60(TB) leukemia) was 4.03 µM. The TGI (HL-60(TB) leukemia) was 20.1 µM, the GI50 (HOP-62 NSCLC) was 14.9 µM and the TGI (HOP-62 NSCLC) was 29.2 µM. For the same compound, the GI50 (HOP-92 NSCLC) was 2 µM, the TGI (HOP-92 NSCLC) was 4.88 µM and the GI50 (HS 578T breast) was 7.29 µM. For the same compound, the TGI (HS 578T breast) was 35.2 µM, the GI50 (IGROV1 ovarian) was 12.2 µM and the TGI (IGROV1 ovarian) was 25.6 µM. The GI50 (K-562 leukemia) was 1.05 µM, the TGI (K-562 leukemia) was 3.21 µM and the GI50 (KM12 colon) was 7.82 µM. For the same compound, the TGI (KM12 colon) was 24.7 µM, the GI50 (LOX IMVI melanoma) was 1.35 µM and the TGI (LOX IMVI melanoma) was 2.72 µM. For the same compound, the GI50 (M14 melanoma) was 1.71 µM, the TGI (M14 melanoma) was 3.43 µM and the GI50 (MALME-3M melanoma) was 1.64 µM. For the same compound, the TGI (MALME-3M melanoma) was 3.09 µM, the GI50 (MCF7 breast) was 1.9 µM and the TGI (MCF7 breast) was 4.23 µM. It also gave a GI50 (MDA-MB-231 breast) of 3.11 µM, a TGI (MDA-MB-231 breast) of 8.94 µM and a GI50 (MDA-MB-435) of 1.88 µM. For the same compound, the TGI (MDA-MB-435) was 4.17 µM, the GI50 (MDA-MB-468 breast) was 1.64 µM and the TGI (MDA-MB-468 breast) was 3.13 µM. It also gave a GI50 (MOLT-4 leukemia) of 0.411 µM, a TGI (MOLT-4 leukemia) of 1.97 µM and a GI50 (NCI-H226 lung) of 11.4 µM. The TGI (NCI-H226 lung) was 41.7 µM, the GI50 (NCI-H23 lung) was 2.09 µM and the TGI (NCI-H23 lung) was 5.07 µM. For the same compound, the GI50 (NCI-H460 lung) was 8.46 µM, the TGI (NCI-H460 lung) was 22.8 µM and the GI50 (NCI-H522 lung) was 1.2 µM. It also gave a TGI (NCI-H522 lung) of 2.63 µM, a GI50 (OVCAR-3 ovarian) of 1.89 µM and a TGI (OVCAR-3 ovarian) of 3.52 µM. For the same compound, the GI50 (OVCAR-4 ovarian) was 2.96 µM, the TGI (OVCAR-4 ovarian) was 9.57 µM and the GI50 (OVCAR-5 ovarian) was 14.6 µM. It also gave a TGI (OVCAR-5 ovarian) of 28.4 µM, a GI50 (OVCAR-8 ovarian) of 3.95 µM and a TGI (OVCAR-8 ovarian) of 19.6 µM. The GI50 (PC-3 prostate) was 8.63 µM, the TGI (PC-3 prostate) was 24.6 µM and the GI50 (RXF 393 renal) was 1.77 µM. The TGI (RXF 393 renal) was 3.64 µM, the GI50 (SF-268 CNS) was 15.9 µM and the TGI (SF-268 CNS) was 36.4 µM. It also gave a GI50 (SF-295 CNS) of 14.6 µM, a TGI (SF-295 CNS) of 28.1 µM and a GI50 (SF-539 CNS) of 6.38 µM. For the same compound, the TGI (SF-539 CNS) was 19.3 µM, the GI50 (SK-MEL-2 melanoma) was 4.14 µM and the TGI (SK-MEL-2 melanoma) was 16.1 µM. The GI50 (SK-MEL-28 melanoma) was 1.79 µM, the TGI (SK-MEL-28 melanoma) was 3.33 µM and the GI50 (SK-MEL-5 melanoma) was 2.18 µM. The TGI (SK-MEL-5 melanoma) was 5.77 µM, the GI50 (SK-OV-3 ovarian) was 13.3 µM and the TGI (SK-OV-3 ovarian) was 26.4 µM. It also gave a GI50 (SN12C renal) of 3.74 µM, a TGI (SN12C renal) of 14.4 µM and a GI50 (SNB-19 CNS) of 13.8 µM. For the same compound, the TGI (SNB-19 CNS) was 26.9 µM, the GI50 (SNB-75 CNS) was 8.16 µM and the TGI (SNB-75 CNS) was 24.4 µM. For the same compound, the GI50 (SR leukemia) was 0.504 µM, the TGI (SR leukemia) was 2.74 µM and the GI50 (SW-620 colon) was 1.48 µM. It also gave a TGI (SW-620 colon) of 2.96 µM, a GI50 (TK-10 renal) of 1.7 µM and a TGI (TK-10 renal) of 3.19 µM. It also gave a GI50 (U251 CNS) of 11.1 µM, a TGI (U251 CNS) of 24.5 µM and a GI50 (UACC-257 melanoma) of 1.99 µM. For the same compound, the TGI (UACC-257 melanoma) was 4.28 µM, the GI50 (UACC-62 melanoma) was 6.98 µM and the TGI (UACC-62 melanoma) was 19.8 µM. For the same compound, the GI50 (UO-31 renal) was 1.58 µM and the TGI (UO-31 renal) was 2.95 µM.
